The text below walks through data of paper PMC7934444, “A bifunctional enzyme belonging to cytochrome P450 family involved in the O-dealkylation and N-dealkoxymethylation toward chloroacetanilide herbicides in Rhodococcus sp. B2” (Microbial Cell Factories, 2021).

This experiment deals with T1, EthABDB2 (EthAB2 + EthBB2 + EthDB2) (Rhodococcus sp. B2, UniProt A0A8A6W4L4).
T1 construct: gene ethB; 43 kDa (EthA), 44 kDa (EthB), 10 kDa (EthD); mixed in vitro; EthB has ten residue differences from EthB of strain T3-1; with Ferredoxin reductase EthA; EthD protein (10 kDa; unknown function, acts as ferredoxin)
The experiment in a line: reconstituted enzyme assay, HPLC substrate loss; GC-MS of product CMEPA. Format: biochemical. The following applies: 0.5 mM substrate; 1 mM NADH, 0.5 mM Fe2+, 1 mM MgCl2, 20 mM Tris-HCl pH 7.5, 30 °C; N-dealkoxymethylation.

T1 sequence (A0A8A6W625 entry or part of it): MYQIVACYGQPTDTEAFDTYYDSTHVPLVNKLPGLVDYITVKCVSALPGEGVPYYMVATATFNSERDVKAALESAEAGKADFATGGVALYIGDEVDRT
T1 sequence (A0A8A6W4L4 entry or part of it): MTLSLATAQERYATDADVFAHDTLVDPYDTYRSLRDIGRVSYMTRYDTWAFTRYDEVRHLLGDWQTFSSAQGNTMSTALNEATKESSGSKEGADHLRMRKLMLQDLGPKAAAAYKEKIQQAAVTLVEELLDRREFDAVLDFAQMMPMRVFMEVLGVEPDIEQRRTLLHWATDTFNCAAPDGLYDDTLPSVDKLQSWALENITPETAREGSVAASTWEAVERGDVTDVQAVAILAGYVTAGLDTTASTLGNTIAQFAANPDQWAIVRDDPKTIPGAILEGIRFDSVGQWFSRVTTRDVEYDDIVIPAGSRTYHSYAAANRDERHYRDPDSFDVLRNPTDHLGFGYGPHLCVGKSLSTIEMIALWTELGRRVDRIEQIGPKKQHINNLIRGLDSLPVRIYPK
T1 sequence (A0A8A6W576 entry or part of it, further chain): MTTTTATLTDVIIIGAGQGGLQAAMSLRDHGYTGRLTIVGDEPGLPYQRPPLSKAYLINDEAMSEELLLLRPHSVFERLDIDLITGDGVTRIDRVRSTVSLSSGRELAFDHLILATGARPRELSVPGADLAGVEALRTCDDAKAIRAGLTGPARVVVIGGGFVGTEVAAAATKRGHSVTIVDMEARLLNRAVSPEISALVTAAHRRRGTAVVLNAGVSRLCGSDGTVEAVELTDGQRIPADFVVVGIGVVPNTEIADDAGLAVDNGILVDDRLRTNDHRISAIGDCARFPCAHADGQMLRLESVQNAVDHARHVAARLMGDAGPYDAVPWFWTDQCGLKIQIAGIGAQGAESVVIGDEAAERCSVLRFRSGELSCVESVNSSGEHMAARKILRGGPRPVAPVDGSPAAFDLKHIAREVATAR

Turning to `CCc1cccc(C)c1N(COC(C)C)C(=O)CCl` [propisochlor], the “reconstituted enzyme assay, HPLC substrate loss; GC-MS of product CMEPA” value was “EthABDB2 performed N-dealkoxymethylation to acetochlor, alachlor, propisochlor and butachlor, O-dealkylation to pretilachlor”.
